Laboratory results taken from ChEMBL document CHEMBL3991601, “The target landscape of clinical kinase drugs” (Science, 2017).
Calls of active or inactive are those of the source. Rule as the data show it, for most assays here: actives have a measured Kd and inactives only a lower limit.

Tests used:
[1] = molecular target: TRAF2 and NCK-interacting protein kinase (Homo sapiens, UniProt Q9UKE5)
[2] = molecular target: Tyrosine-protein kinase Lyn (Homo sapiens, UniProt P07948)
[3] = molecular target: T1, Serine/threonine-protein kinase Nek9 (Homo sapiens, UniProt Q8TD19)
T1 sequence (Q8TD19 whole entry): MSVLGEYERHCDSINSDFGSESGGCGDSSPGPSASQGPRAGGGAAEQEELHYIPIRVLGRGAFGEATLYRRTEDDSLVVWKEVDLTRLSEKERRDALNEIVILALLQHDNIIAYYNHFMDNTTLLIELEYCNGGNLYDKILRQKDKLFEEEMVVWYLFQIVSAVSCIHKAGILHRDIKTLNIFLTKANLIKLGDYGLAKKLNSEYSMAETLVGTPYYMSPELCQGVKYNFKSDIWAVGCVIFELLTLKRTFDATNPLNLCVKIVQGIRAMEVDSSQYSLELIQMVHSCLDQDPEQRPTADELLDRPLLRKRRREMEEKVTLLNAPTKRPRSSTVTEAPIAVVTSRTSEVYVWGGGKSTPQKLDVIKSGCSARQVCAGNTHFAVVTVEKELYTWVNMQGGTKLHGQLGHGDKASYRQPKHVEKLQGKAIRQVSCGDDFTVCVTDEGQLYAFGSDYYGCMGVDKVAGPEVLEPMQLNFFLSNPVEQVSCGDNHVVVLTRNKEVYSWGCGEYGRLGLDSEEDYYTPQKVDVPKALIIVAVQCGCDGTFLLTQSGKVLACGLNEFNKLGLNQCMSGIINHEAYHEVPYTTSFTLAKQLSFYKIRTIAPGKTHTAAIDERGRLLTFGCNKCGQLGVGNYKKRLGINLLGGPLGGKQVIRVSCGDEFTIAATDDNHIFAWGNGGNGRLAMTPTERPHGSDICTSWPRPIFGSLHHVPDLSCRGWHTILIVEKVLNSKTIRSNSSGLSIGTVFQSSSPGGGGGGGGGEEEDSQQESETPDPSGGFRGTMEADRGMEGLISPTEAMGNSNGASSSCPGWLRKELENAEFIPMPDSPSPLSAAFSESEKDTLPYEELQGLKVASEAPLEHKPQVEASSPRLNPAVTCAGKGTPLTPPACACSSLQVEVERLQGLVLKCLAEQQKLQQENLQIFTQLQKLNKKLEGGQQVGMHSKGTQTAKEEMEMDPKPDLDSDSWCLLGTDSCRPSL

[4] = molecular target: Mitogen-activated protein kinase 14 (Homo sapiens, UniProt Q16539)
[5] = molecular target: T2, Phosphatidylinositol 5-phosphate 4-kinase type-2 alpha (Homo sapiens, UniProt P48426)
T2 sequence (P48426 whole entry): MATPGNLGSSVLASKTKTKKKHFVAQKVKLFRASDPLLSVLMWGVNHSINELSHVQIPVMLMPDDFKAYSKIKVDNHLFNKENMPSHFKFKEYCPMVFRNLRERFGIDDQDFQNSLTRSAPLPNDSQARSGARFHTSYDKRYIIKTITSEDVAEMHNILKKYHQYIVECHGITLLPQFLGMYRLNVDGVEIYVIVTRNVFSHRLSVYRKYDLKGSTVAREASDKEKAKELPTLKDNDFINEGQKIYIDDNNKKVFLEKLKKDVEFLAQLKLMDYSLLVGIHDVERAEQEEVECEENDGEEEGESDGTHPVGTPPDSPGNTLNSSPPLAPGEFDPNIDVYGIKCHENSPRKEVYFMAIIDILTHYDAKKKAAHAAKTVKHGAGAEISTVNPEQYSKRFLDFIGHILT

[6] = molecular target: T3, Acyl-CoA dehydrogenase family member 10 (Homo sapiens, UniProt Q6JQN1)
T3 sequence (Q6JQN1 whole entry): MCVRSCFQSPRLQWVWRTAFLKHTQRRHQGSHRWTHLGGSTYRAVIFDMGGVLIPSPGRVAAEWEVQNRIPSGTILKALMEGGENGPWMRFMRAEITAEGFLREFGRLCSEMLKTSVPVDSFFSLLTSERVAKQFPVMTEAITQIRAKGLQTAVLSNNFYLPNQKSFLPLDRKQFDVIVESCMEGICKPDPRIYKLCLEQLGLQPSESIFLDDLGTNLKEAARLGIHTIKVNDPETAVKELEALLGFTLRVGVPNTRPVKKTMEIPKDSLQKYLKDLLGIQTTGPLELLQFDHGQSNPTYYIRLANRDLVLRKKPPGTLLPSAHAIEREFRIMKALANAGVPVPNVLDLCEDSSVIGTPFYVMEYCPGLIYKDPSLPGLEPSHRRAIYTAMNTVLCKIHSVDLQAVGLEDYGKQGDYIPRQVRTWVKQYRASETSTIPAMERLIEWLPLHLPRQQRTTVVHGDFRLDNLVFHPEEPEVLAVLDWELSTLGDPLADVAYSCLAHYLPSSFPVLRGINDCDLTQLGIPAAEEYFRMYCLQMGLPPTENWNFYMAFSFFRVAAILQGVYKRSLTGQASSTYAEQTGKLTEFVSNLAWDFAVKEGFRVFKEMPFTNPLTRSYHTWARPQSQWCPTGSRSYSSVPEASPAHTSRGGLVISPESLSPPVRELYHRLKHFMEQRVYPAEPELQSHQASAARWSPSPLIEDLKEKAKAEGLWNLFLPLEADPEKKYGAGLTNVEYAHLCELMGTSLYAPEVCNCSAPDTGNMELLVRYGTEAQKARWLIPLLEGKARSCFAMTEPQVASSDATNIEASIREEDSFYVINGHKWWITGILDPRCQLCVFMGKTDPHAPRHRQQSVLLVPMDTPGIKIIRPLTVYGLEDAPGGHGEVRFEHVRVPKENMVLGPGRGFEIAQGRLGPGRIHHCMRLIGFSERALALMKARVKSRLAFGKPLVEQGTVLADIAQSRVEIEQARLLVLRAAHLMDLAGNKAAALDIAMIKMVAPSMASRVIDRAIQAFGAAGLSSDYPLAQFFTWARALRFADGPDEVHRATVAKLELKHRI

[7] = molecular target: Serine/threonine-protein kinase N3 (Homo sapiens, UniProt Q6P5Z2)
[8] = molecular target: Dual specificity protein kinase CLK2 (Homo sapiens, UniProt P49760)
[9] = molecular target: Obg-like ATPase 1 (Homo sapiens, UniProt Q9NTK5)
Also: in the data inactive means no Kd found up to 30 µM.

Sequence of Mitogen-activated protein kinase 14 (Q16539 whole entry): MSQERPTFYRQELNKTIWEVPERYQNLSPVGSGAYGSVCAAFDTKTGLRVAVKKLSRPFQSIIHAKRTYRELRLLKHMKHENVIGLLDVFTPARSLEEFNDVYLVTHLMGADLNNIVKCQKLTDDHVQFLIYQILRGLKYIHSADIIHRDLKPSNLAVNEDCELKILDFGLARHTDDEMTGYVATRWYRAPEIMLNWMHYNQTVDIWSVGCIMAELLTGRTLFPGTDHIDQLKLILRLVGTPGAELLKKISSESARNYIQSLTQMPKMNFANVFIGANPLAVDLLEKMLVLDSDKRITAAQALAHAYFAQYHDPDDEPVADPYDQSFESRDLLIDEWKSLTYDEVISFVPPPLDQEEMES
Sequence of Serine/threonine-protein kinase N3 (Q6P5Z2 whole entry): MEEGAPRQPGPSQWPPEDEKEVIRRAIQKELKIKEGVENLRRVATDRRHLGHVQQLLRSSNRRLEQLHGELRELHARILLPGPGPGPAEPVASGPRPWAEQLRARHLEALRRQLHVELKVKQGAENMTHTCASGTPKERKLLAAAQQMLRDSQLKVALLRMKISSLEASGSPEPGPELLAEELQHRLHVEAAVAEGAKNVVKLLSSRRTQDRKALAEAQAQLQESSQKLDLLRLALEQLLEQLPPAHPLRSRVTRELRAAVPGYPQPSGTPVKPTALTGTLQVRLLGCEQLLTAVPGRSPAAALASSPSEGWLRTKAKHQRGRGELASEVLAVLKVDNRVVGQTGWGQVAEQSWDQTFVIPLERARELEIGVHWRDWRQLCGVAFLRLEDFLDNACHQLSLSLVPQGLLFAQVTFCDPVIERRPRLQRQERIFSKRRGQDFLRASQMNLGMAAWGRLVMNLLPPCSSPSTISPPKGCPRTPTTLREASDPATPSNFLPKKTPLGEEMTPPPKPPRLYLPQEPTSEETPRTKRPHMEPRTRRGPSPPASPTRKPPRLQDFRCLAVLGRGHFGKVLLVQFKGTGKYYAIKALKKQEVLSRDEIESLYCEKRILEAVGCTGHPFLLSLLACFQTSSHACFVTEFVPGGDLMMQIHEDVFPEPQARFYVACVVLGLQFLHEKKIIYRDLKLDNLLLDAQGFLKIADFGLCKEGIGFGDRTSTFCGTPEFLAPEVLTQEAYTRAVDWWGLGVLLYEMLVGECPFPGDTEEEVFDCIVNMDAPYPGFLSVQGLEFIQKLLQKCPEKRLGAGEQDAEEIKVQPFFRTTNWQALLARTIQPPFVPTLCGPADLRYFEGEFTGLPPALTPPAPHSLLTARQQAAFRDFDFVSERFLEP
Sequence of Dual specificity protein kinase CLK2 (P49760 whole entry): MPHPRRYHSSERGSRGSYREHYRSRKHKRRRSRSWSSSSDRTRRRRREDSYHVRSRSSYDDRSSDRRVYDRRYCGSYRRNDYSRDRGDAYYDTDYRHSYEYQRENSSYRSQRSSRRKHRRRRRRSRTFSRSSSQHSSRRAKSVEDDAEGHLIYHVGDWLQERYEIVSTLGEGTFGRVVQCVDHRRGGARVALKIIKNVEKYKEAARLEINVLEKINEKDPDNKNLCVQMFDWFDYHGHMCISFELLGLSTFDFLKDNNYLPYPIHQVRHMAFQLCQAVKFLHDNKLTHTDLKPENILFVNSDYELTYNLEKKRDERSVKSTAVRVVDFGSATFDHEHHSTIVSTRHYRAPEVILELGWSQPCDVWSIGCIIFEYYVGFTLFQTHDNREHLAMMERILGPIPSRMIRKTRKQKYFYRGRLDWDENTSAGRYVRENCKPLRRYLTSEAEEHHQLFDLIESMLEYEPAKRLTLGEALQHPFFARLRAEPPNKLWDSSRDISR
Sequence of Obg-like ATPase 1 (Q9NTK5 whole entry, looked up): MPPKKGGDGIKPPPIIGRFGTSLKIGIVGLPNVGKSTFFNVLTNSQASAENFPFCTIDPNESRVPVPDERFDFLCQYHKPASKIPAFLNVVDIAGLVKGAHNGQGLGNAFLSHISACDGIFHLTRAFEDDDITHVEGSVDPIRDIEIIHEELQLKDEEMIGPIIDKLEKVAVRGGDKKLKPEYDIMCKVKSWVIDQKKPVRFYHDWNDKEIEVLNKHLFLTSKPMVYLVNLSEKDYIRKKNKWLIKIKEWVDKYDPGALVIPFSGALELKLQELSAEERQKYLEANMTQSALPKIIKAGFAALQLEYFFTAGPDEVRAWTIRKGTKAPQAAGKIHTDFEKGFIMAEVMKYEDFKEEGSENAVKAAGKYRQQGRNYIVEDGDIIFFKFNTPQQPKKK
Sequence of Tyrosine-protein kinase Lyn (P07948 whole entry): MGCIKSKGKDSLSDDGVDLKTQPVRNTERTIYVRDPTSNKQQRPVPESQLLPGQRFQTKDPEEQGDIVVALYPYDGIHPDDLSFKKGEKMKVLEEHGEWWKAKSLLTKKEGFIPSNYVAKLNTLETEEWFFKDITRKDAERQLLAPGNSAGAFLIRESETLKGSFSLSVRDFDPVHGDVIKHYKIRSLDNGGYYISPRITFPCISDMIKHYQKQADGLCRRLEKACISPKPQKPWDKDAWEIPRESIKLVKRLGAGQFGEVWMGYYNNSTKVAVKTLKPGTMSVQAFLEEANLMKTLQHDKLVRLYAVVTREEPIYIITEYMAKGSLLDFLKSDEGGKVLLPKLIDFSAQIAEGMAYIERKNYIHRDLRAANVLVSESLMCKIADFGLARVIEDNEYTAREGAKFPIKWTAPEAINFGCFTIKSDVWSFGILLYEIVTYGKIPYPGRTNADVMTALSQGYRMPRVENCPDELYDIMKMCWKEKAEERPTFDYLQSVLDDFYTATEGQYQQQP
Sequence of TRAF2 and NCK-interacting protein kinase (Q9UKE5 whole entry): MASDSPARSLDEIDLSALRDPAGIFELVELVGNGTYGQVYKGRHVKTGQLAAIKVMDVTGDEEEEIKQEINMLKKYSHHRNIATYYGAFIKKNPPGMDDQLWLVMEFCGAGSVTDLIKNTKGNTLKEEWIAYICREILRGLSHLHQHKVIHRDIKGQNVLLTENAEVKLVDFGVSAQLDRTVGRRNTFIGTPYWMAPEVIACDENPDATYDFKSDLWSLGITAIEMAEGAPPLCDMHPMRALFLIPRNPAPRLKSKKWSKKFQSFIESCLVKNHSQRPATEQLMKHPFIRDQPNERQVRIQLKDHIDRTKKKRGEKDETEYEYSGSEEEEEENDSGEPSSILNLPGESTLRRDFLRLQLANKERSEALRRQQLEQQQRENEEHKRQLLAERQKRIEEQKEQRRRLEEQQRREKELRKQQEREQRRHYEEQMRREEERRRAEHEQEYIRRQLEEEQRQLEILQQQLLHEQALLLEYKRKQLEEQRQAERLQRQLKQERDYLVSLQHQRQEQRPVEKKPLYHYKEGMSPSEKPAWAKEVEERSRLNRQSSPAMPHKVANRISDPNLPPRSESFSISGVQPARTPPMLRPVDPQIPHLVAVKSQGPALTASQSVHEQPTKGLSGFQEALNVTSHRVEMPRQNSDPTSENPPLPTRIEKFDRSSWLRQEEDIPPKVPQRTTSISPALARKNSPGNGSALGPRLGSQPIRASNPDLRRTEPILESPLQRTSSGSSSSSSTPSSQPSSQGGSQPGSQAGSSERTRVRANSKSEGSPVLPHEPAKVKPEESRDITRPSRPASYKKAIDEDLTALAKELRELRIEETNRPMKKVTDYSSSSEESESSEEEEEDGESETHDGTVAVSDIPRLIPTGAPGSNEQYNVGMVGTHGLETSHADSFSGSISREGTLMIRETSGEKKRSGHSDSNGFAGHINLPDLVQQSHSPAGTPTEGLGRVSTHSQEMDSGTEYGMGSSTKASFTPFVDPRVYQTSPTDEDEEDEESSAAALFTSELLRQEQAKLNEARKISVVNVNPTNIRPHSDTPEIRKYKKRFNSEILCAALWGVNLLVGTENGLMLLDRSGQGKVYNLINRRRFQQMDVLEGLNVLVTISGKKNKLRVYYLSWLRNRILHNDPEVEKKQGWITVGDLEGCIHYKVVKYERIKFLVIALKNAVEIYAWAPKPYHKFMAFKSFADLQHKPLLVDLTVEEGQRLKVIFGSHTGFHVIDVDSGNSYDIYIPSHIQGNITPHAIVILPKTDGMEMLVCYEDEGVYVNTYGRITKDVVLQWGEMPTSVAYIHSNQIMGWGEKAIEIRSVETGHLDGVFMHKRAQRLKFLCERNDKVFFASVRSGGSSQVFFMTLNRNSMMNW

SMILES | Kd [1] | Kd [2] | Kd [3] | Kd [4] | Kd [5] | Kd [6] | Kd [7] | Kd [8] | Kd [9]
Cn1ncc(Cl)c1-c1cc(C(=O)N[C@H](CN)Cc2cccc(F)c2)sc1Cl [AFURESERTIB] | > 30 µM (inactive) | > 30 µM (inactive) | > 30 µM (inactive) | > 30 µM (inactive) |  |  |  |  | 
C[C@@H](Nc1cc(F)cc(F)c1)c1cc(C(=O)N(C)C)cc2c(=O)cc(N3CCOCC3)oc12 [AZD-8186] | > 30 µM (inactive) | > 30 µM (inactive) | > 30 µM (inactive) | > 30 µM (inactive) | > 30 µM (inactive) | > 30 µM (inactive) |  |  | 
CNC(=O)c1ccc(C)c(-n2c(C)cc(OCc3ccc(F)cc3F)c(Br)c2=O)c1 [PH-797804] | > 30 µM (inactive) | > 30 µM (inactive) | > 30 µM (inactive) |  |  |  | > 30 µM (inactive) | > 30 µM (inactive) | 
CN1CCC(COc2cnc(-c3cccc(Cn4nc(-c5cccc(C#N)c5)ccc4=O)c3)nc2)CC1 [TEPOTINIB] | > 30 µM (inactive) | > 30 µM (inactive) | > 30 µM (inactive) |  | > 30 µM (inactive) | > 30 µM (inactive) |  |  | > 30 µM (inactive)
CNC(=O)c1ccc(-c2cnc3ncc(Cc4ccc5ncccc5c4)n3n2)cc1F [CAPMATINIB] | > 30 µM (inactive) | > 30 µM (inactive) | > 30 µM (inactive) | > 30 µM (inactive) | > 30 µM (inactive) | > 30 µM (inactive) | > 30 µM (inactive) |  | > 30 µM (inactive)
CCn1c(=O)c(-c2cc[nH]n2)cc2c(C)nc(N)nc21 [VOXTALISIB] | > 30 µM (inactive) | > 30 µM (inactive) | > 30 µM (inactive) |  | > 30 µM (inactive) | > 30 µM (inactive) |  |  | > 30 µM (inactive)
Cn1cc(-c2ccc(F)c(C(F)(F)F)c2)nc1C1CCN(c2ncnc3[nH]ncc23)CC1 [LY-2584702] | > 30 µM (inactive) | > 30 µM (inactive) | > 30 µM (inactive) | > 30 µM (inactive) | > 30 µM (inactive) | > 30 µM (inactive) |  |  | > 30 µM (inactive)
Cc1cn(-c2cc(NC(=O)c3ccc(C)c(Nc4nccc(-c5cccnc5)n4)c3)cc(C(F)(F)F)c2)cn1 [NILOTINIB] |  |  |  |  | > 30 µM (inactive) | > 30 µM (inactive) | > 30 µM (inactive) |  | > 30 µM (inactive)
O=C1NC(=O)/C(=C/c2ccc3nccc(-c4ccncc4)c3c2)S1 [GSK-1059615] | > 30 µM (inactive) | > 30 µM (inactive) | > 30 µM (inactive) | > 30 µM (inactive) | > 30 µM (inactive) |  |  | 0.0004 µM (active) | > 30 µM (inactive)
O=C(Nc1cccc(Cl)c1)Nc1ncc(CCNc2ncnc3ccsc23)s1 [SNS-314] | > 30 µM (inactive) | > 30 µM (inactive) | > 30 µM (inactive) |  | > 30 µM (inactive) | > 30 µM (inactive) | > 30 µM (inactive) |  | > 30 µM (inactive)
Cc1c(F)cc(C(=O)NC2CC2)cc1-c1ccc(C(=O)NCC(C)(C)C)cn1 [LOSMAPIMOD] |  | > 30 µM (inactive) | > 30 µM (inactive) |  | > 30 µM (inactive) | > 30 µM (inactive) | > 30 µM (inactive) | > 30 µM (inactive) | > 30 µM (inactive)
CCn1c(-c2nonc2N)nc2c(C#CC(C)(C)O)ncc(OC[C@H]3CCCNC3)c21 [GSK-690693] |  |  |  |  |  | > 30 µM (inactive) |  |  | > 30 µM (inactive)
C1=C/COCc2cc(ccc2OCCN2CCCC2)Nc2nccc(n2)-c2cccc(c2)COC/1 [PACRITINIB] | 0.089 µM | > 30 µM (inactive) | 1.78 µM (active) | > 30 µM (inactive) |  | > 30 µM (inactive) |  |  | > 30 µM (inactive)
Nc1nc(N)c2nc(-c3cccc(O)c3)c(-c3cccc(O)c3)nc2n1 [TG100-115] |  |  |  |  | 7.02 µM |  | > 30 µM (inactive) |  | > 30 µM (inactive)
Cc1cc(-c2cc(O)ccc2Cl)cc2nnc(Nc3ccc(OCCN4CCCC4)cc3)nc12 | > 30 µM (inactive) | > 30 µM (inactive) | > 30 µM (inactive) | > 30 µM (inactive) | > 30 µM (inactive) | > 30 µM (inactive) | > 30 µM (inactive) | > 30 µM (inactive) | > 30 µM (inactive)
